# Source: ChEMBL document CHEMBL1201862, “PubChem BioAssay data set” (2004)
# Activity calls are given as the source filed them.
# Experiments:
# [1] = cytotoxicity in MITF-independent A375 cells – cell-based, CellTiter-Glo luminescence, dry powder, set 4, counter-screen for MITF inhibitor project, dose response (AID 624364); format: functional; settings: A-375;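 further: A375 melanoma cells are MITF independent so this is a counter screen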
# [2] = viability loss in MITF-independent A375 cells – cell-based, CellTiter-Glo luminescence, dry powder, set 2, counter-screen for MITF inhibitor project, dose response (AID 624489); format: functional; settings: A-375;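 further: actives are compounds lowering A375 viability meaning general cytotoxicity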
# [3] = MITF: Counter assay: A375 proliferation Measured in Cell-Based System Using Plate Reader - 2084-03_Inhibitor_Dose_DryPowder_Activity_Set8.; format: functional; settings: A-375
# [4] = inhibitors of TRPM1-promoter reporter in SK-MEL-5 – cell-based, luciferase, dry powder, set 8, MITF inhibitor project, dose response (AID 624430); format: functional
# [5] = MITF Orthogonal Assay: SK-MEL-5 CTG Assay Measured in Cell-Based System Using Plate Reader - 2084-02_Inhibitor_Dose_DryPowder_Activity_Set7.; format: functional
# [6] = T. cruzi growth inhibition in host cells, dose response, cell-based, plate reader, dry powder, set 2 (AID 652275); format: functional
# [7] = anti-trypanosomal activity in BESM host cells – imaging, CA-I/72 strain, bovine embryo skeletal muscle, dry powder, dose response (AID 651885); format: functional, cell-based
# [8] = mouse embryonic fibroblast toxicity – cell-based, plate reader, dry powder, set 2, cytotoxicity control, dose response (AID 652280); format: functional; settings: NIH3T3
# [9] = Late stage assay provider results from the probe development effort to identify selective inhibitors of heat shock protein 90 (HSP90): Absorbance-based cell proliferation assay in MCF7 cells.; format: functional
# [10] = Late stage assay provider results from the probe development effort to identify selective inhibitors of heat shock protein 90 (HSP90): Absorbance-based cell proliferation assay in SKBR3 cells.; format: functional; settings: SK-BR-3
# cells = settings: HEK293
# [11] = toxicity to A549 lung cells – cell-based, plate reader, dry powder, set 6, cytotoxicity control, dose response (AID 743312); format: functional
# [12] = toxicity to HepG2 liver cells – cell-based, plate reader, dry powder, set 6, cytotoxicity control, dose response (AID 743311); format: functional
# [13] = biological target: Potassium channel subfamily K member 9 (Homo sapiens, UniProt Q9NPC2); experiment: KCNK9 flux blockade, concentration-response – cell-based, FluxOR thallium flux, selectivity assay for TASK1 inhibitor project, SAR follow-up (AID 652211); format: functional;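 further: potency is for inhibitors of the channel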
# Potassium channel subfamily K member 9, sequence (Q9NPC2 whole entry): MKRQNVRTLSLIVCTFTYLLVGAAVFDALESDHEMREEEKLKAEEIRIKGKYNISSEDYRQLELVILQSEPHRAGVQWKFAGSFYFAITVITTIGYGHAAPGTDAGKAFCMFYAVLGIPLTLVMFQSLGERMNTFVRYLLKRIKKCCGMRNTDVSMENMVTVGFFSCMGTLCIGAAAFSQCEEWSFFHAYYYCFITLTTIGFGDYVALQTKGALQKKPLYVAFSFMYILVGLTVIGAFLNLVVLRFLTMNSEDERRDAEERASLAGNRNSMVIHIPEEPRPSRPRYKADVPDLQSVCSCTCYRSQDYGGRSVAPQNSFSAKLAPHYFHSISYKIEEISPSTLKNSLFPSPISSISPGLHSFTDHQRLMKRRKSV
# [14] = biological target: Potassium channel subfamily K member 3 (Homo sapiens, UniProt O14649); experiment: inhibition of human KCNK3 channel flux – CHO cells, FluxOR thallium flux, SAR follow-up (AID 652212); format: functional
# Potassium channel subfamily K member 3, sequence (O14649 whole entry): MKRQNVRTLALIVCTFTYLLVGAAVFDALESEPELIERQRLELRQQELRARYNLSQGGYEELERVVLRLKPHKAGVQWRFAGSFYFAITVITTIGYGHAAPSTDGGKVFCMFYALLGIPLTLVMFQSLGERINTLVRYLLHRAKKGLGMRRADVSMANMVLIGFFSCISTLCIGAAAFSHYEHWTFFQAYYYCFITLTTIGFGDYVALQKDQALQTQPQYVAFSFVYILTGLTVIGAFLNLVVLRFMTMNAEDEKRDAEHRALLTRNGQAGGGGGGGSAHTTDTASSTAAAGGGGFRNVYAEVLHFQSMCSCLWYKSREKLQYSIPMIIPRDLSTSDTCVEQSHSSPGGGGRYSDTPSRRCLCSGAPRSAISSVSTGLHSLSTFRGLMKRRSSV
# [15] = biological target: Sphingosine 1-phosphate receptor 2 (Homo sapiens, UniProt O95136); experiment: Dose Response Cell Based Assay for Antagonists of the S1P2 Receptor. [Related pubchem assays: 856, 736 ]; format: functional
# Sphingosine 1-phosphate receptor 2, sequence (O95136 whole entry): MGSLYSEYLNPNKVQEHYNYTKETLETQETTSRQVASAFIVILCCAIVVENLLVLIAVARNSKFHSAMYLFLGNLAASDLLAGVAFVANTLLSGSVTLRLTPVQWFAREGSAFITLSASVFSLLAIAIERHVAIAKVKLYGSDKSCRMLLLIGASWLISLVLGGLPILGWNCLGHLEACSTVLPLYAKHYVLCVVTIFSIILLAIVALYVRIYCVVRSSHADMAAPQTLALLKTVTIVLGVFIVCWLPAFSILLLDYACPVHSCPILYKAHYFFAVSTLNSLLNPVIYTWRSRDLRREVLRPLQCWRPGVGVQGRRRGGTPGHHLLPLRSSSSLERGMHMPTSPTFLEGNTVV
# [16] = toxicity toward immortalized ovarian surface epithelium – cell-based, plate reader, dry powder samples, cytotoxicity control for PAX8 inhibitor project, dose response (AID 743045); format: functional
# [17] = A2780 cell killing – plate reader, dry powder samples, cytotoxicity control, dose response (AID 743046); format: functional, cell-based
# [18] = PAX8-dependent cell viability loss – plate reader, dry powder, dose response (AID 743049); format: functional, cell-based
# [19] = COV362 cell viability loss – plate reader, dry powder, SA12, cytotoxicity control for PAX8 inhibitor project, dose response (AID 743144); format: functional, cell-based
# Paired box protein Pax-8 = Paired box protein Pax-8 (Homo sapiens, UniProt Q06710); experiment: PAX8 transcriptional activity inhibition in RMG-I – RMG-I cells, luciferase, cherry-pick, dose response (AID 687027); format: functional, cell-based;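 further: luciferase reporter driven by Pax8 target thyroperoxidase promoter measured by SteadyGlo luminescence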
# Paired box protein Pax-8, sequence (Q06710 whole entry): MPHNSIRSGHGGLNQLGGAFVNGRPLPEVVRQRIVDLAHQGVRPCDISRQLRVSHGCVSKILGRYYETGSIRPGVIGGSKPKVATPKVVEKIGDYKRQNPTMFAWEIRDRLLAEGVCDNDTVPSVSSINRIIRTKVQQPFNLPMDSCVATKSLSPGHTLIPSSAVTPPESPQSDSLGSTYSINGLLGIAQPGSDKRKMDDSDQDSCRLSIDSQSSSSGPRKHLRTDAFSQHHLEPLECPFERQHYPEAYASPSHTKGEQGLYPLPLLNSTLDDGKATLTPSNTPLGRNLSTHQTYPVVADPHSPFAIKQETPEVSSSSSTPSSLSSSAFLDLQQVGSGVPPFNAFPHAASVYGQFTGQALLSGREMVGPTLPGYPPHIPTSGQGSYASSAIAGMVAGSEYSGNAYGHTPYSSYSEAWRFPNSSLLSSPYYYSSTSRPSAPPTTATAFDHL
# [20] = OV-90 cell viability loss – plate reader, dry powder, SA8, PAX8 inhibitor project, dose response (AID 743149); format: functional, cell-based
# [21] = general cell-killing toxicity readout – plate reader, dry powder samples, cytotoxicity control for PAX8 inhibitor project, dose response (AID 743021); format: functional, cell-based
# [22] = OVCAR8 cell viability loss – plate reader, dry powder samples, PAX8 project, dose response (AID 743197); format: functional, cell-based; settings: OVCAR-8
# [23] = OVCAR-3 cell viability loss – plate reader, dry powder samples, PAX8 inhibitor project, dose response (AID 743044); format: functional, cell-based
# [24] = OVCAR4 cell viability loss – plate reader, dry powder, SA11, cytotoxicity control for PAX8 inhibitor project, dose response (AID 743150); format: functional, cell-based; settings: OVCAR-4
# [25] = IGROV1 cell killing – plate reader, dry powder samples, PAX8 inhibitor project, dose response (AID 743043); format: functional, cell-based; settings: IGROV-1
# [26] = reduced cellular PGC1a acetyl-lysine signal – cell-based, cherry-picked samples, dose response (AID 720514); format: functional;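 further: potency may reflect raised or lowered acetylation signal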
# [27] = COV434 cell viability loss – plate reader, dry powder, SA7, cytotoxicity control for PAX8 inhibitor project, dose response (AID 743145); format: functional, cell-based
# Nonstructural protein 1 = Nonstructural protein 1 (Influenza A virus, UniProt Q194T2); format: functional, Influenza A virus (A/California/07/2009(H1N1))
# Nonstructural protein 1, sequence (Q194T2 whole entry): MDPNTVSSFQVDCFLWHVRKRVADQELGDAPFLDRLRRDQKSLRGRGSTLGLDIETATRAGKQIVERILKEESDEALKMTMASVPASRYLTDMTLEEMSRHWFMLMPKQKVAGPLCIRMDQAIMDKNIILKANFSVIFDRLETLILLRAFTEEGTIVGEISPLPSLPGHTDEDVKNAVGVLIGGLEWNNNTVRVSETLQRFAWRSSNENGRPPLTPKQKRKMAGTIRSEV
# [28] = biological target: Matrix metalloproteinase-14 (Homo sapiens, UniProt P50281); experiment: Dose Response confirmation of uHTS hits for a small molecule inhibitors of MT1-MMP activation in a fluorescence assay set 2.; format: functional
# [29] = viability loss in HepG2 hepatoma cells – cell-based, cherry-picks, set 5, cytotoxicity control, dose response (AID 1053118); format: functional
# [30] = viability loss in A549 lung cancer cells – cell-based, cherry-picks, […], cytotoxicity control, dose response (AID 1053119); format: functional
# [31] = viability loss in HEK293 kidney cells – cell-based, cherry-picks, set 5, cytotoxicity control, dose response (AID 1053117); format: functional
compound,measurement,setting,value
O=C(NC1=C(c2ccc(OC(F)(F)F)cc2)C(=O)c2ccccc2C1=O)c1ccccc1F,AC50,[1],34.4 µM (active)
same,AC50,[2],30.5 µM (active)
O=C1C=C(Nc2cccc(C(F)(F)F)c2)C(=O)c2ccccc21,AC50,[3],> 70 µM (inactive)
same,AC50,[4],> 70 µM (inactive)
same,AC50,[5],0.463 µM (active)
C[C@@H]1CN([C@@H](C)CO)C(=O)c2cc(-c3cccnc3)cnc2O[C@H]1CN(C)Cc1ccc(Oc2ccccc2)cc1,AC50,[6],1.95 µM (active)
same,IC50,[7],> 20 µM (inactive)
same,AC50,[8],11.9 µM (active)
O=C1OC(=O)/C(=C\NCCC2=CCCCC2)C=C1Br,IC50,[9],3 µM (active)
same,IC50,[10],8 µM (active)
Cc1cc2ncn(CCOc3ccc4c(c3)CCC4)c2cc1C,AC50,cells,33 µM (active)
same,AC50,[11],24.1 µM (active)
same,AC50,[12],> 52 µM (inactive)
CCOc1ccccc1NC(=O)c1cccc(NC(=O)c2cccc(OC)c2)c1,IC50,[13],2.33 µM (active)
same,IC50,[14],0.005 µM (active)
O=C(Nc1ccc(F)cc1)c1sc(-c2ccccc2)nc1C(F)(F)F,IC50,[15],> 30 µM (not active)
CN(C[C@H]1N[C@@H](CO)[C@@H]1c1ccc(C2=CCCC2)cc1)C(=O)c1cccc(F)c1,AC50,[16],3.44 µM (active)
same,AC50,[17],11.3 µM (active)
same,AC50,[18],3.86 µM (active)
same,AC50,[19],3.98 µM (active)
same,AC50,Paired box protein Pax-8,2.47 µM (active)
same,AC50,[20],7.38 µM (active)
same,AC50,[21],26 µM (active)
same,AC50,[22],3.4 µM (active)
same,AC50,[23],4.55 µM (active)
same,AC50,[24],1.37 µM (active)
same,AC50,[25],6.12 µM (active)
same,AC50,[26],0.298 µM (active)
same,AC50,[27],6.6 µM (active)
CCN1C(=O)/C(=C2\C=Cc3ccccc3N2CC)SC1=S,IC50,Nonstructural protein 1,4.15 µM (active)
same,IC50,[28],> 80 µM (inactive)
CO[C@H]1CN(C)C(=O)c2cc(NC(=O)Nc3ccc(Cl)c(Cl)c3)ccc2OC[C@H](C)NC[C@@H]1C,AC50,[29],13 µM (active)
same,AC50,[30],12.9 µM (active)
same,AC50,[31],12.8 µM (active)
